Measurements: patent publication US8859527B2 (priority 2009, dated 2014)
Read-outs that look alike come from different tables or passages of the source.

How the values were obtained:
transplanted tumor S180 = test system: transplanted tumor S180
Method: (§1) Experimental groups: three dosage groups were set up for DPT, 10, 5 and 2.5 mg/kg; the blank control group: cyclophosphamide (CTX) group, Etoposide group 20 mg/kg.
(§2) Administration route: injection via tail vein, it is administered in a dosage of 0.4 ml/20 g body weight. Administration period: the drug is administrated 24 hours after the inoculation, once every two days for four times in total.
(§3) Experimental methods: 60 ICR mice with standard weight of from 18 to 22 g are inoculated with S-180 or Heps solid tumor according to the test method for transplanted tumors, hypodermic inoculation with 0.2 ml is carried out in the armpit in the anterior limb of every mouse. The body weight is determined 24 hours after the inoculation and they are randomly divided into six groups: the blank control group, the CTX group (20 mg/kg), the Etoposide group (20 mg/kg), the DPT group (10, 5 and 2.5 mg/Kg). The drug is administrated 24 hours after the inoculation once for every two days for 4 times, and tumor-bearing mice are killed on the next after drug withdrawal and their body weights are measured, and the separated tumor mess is weighed, and all of the data are subjected to statistical analyses (t-test).

transplanted tumor Heps = test system: transplanted tumor Heps
Method: as §1, §2, §3

[1] = test system: BGC-823 (human gastric cancer cell line); assay: in vitro growth inhibition of tumor cells, BGC-823; format: cell-based; conditions: 48 hours
Method: (§4) The tumor strains are A-549 (human lung adenocarcinoma cell line), BGC-823 (human gastric cancer cell line), C-6 (rat neurogliocytoma cell line), Hep G2 (human hepatic cancer cell line), HL-60 (human leukemia cell line), K-562 (human erythremia cell line) and Hela (human cervical cancer cell line). […] The drug was prepared as a stock solution of 10^−2 M by using physiological saline and diluted into the test solution in a gradient composed of five concentrations: C1 5×10^−5 M, C2 10^−5 M, C3 10^−6 M, C4 10^−7 M and C5 10^−8 M.
(§5) Experimental method: different tumor cells in exponential growth phase are inoculated in 96-well plates in a certain amount and the selected samples are added after the cells are cultured for 24 hours (suspension cells can be directly added after being inoculated), after the cells are incubated at 37° C. and 5% CO2 for another 48 hours, […] is added for further incubation for another 4 hours, and finally the samples are examined on a microplate reader after dissolving with DMSO.

[2] = test system: Hela (human cervical cancer cell line); assay: in vitro growth inhibition of tumor cells, Hela; format: cell-based; conditions: hela, 48 hours
Method: as §4, §5

[3] = test system: Hep G2 (human hepatic cancer cell line); assay: in vitro growth inhibition of tumor cells, Hep G2; format: cell-based; conditions: HepG2, 48 hours
Method: as §4, §5

[4] = test system: human non-small cell lung cancer H460 xenograft tumor; conditions: mouse, in vivo, iv, 20 mg/kg
Method: (§6) The test article: the inclusion complex of DPT and SBE-β-CD, the content is 5.05%. Preparation Method: it is dissolved in a proper amount of saline after gentle shaking and the concentration is 0.4 mg/ml (which is the test solution for the 8 mg/kg group); other concentrations are prepared by diluting the stock solution of 0.4 mg/ml to the required concentration with physiological saline.
(§7) The control article: Etoposide injection produced by Qilu Pharmaceutical Co., Ltd. the batch number is 8060012EV, specification: 5 ml:0.1 g. Preparation Method: Etoposide injection is a kind of transparent sticky liquid and it is diluted with a proper amount of physiological saline and gently shaken and prepared as a homogeneous solution, and the concentration is 1 mg/ml.
(§8) Dosage setting: the high dosage group of DPT is 8 mg/kg, the medium dosage group of DPT is 4 mg/kg and the low dosage group of DPT is 2 mg/kg. The dosage for the positive control group of Etoposide injection is 20 mg/kg.
(§9) Experimental animals: source, germline and strain: BALB/c nude mice are provided by the Institute of Experimental Animals, Chinese Academy of Medical Sciences. Age: 35-40 days; body weight: 18-24 g; gender: male.
(§10) Transplanted tumor: the transplanted tumor for human nonsmall-cell lung cancer H460 in nude mice, and it is established by inoculating the human nonsmall-cell lung cancer H460 cell line hypodermically in the armpit of nude mice. 2×10^6 cells are inoculated.
(§11) Human non-small cell lung cancer H460 cell line in exponential phase of growth is prepared as a cell suspension of 2×10^7/ml under sterile conditions, 0.1 ml thereof is inoculated hypodermically in the right armpit of nude mice. The diameters of the transplanted tumors in the nude mice are measured by a sliding caliper, and the animals are randomly divided into different groups when the tumors grow up to the amount of 100 to 300 mm^3. The antitumor efficacy of the test article is dynamically observed by measuring the diameter of the tumor. The diameters of the tumor are determined once for every two days. The administration volume is 0.4 ml/20 g. The mice are killed 21 days after administration, and the tumors are surgically isolated and weighed. The calculation formula for tumor volume (TV) is as follows: TV=½×a×b^2 Wherein a and b represents for the length and the width, respectively.
(§12) The relative tumor volume (RTV) is calculated according to the measured results, and the calculation formula is as follows: RTV=Vt/V0. Wherein V0 is the tumor size measured during grouping and drug administration (d0), Vt is the tumor size in every measurements. The evaluation parameter for antitumor activity is the relative tumor growth rate T/C (%) which is calculated according to the formula as follows:
(§13) [formula] TRTV: the treatment group RTV; CRTV: the negative control group: RTV.

[5] = test system: K-562 (human erythremia cell line); assay: in vitro growth inhibition of tumor cells, K-562; format: cell-based; conditions: K562, 48 hours
Method: as §4, §5

[6] = test system: human non-small cell lung cancer H460 xenograft tumor; conditions: for Tumor volume / RTV / T/C / Gross tumor volume: 20 mg/kg iv
Method: as §6, §7, §8, §9, §10, §11, §12, §13

[7] = test system: HL-60 (human leukemia cell line); assay: in vitro growth inhibition of tumor cells, HL-60; format: cell-based; conditions: 48 hours
Method: as §4, §5

[8] = test system: A-549 (human lung adenocarcinoma cell line); assay: in vitro growth inhibition of tumor cells, A-549; format: cell-based; conditions: A549, 48 hours
Method: as §4, §5

[9] = test system: C-6 (rat neurogliocytoma cell line); assay: in vitro growth inhibition of tumor cells, C-6; format: cell-based; conditions: C6, 48 hours
Method: as §4, §5

[10] = S180 mice, 20 mg/kg iv, once every two days, four times
[11] = Heps mice, 20 mg/kg iv, once every two days, four times
[12] = H460 nude mice, 20 mg/kg iv three times a week, 9 times, 21 days

O=P1(N(CCCl)CCCl)NCCCO1 (centres unmarked) [CTX, cyclophosphamide, reference compound]
Body weight Before administration (transplanted tumor S180; S180 mice, 20 mg/kg iv group): 19.80 ± 1.69 g
Body weight After administration (transplanted tumor S180; [10]): 23.00 ± 2.50 g
Tumor weight (transplanted tumor S180; [10]): 0.98 ± 0.22 g
Tumor-inhibition rate (transplanted tumor S180; [10]): 46.77%
Body weight Before administration (transplanted tumor Heps; Heps mice, 20 mg/kg iv group): 21.30 ± 1.49 g
Body weight After administration (transplanted tumor Heps; [11]): 22.50 ± 3.69 g
Tumor inhibition rate (transplanted tumor Heps; [11]): 66.94%
Tumor weight (transplanted tumor Heps; [11]): 0.65 ± 0.21 g

COc1cc([C@@H]2c3cc4c(cc3[C@@H](O[C@@H]3O[C@@H]5CO[C@@H](C)O[C@H]5[C@H](O)[C@H]3O)[C@H]3COC(=O)[C@H]23)OCO4)cc(OC)c1O [Etoposide, reference compound]
Inhibition effects on in vitro growth ([1]; 5 × 10^−5M): 61.14%
Inhibition effects on in vitro growth ([1]; 10^−5M): 10.55%
Inhibition effects on in vitro growth ([1]; 10^−6M): 8.15%
Inhibition effects on in vitro growth ([1]; 10^−7M): 7.67%
Inhibition effects on in vitro growth ([1]; 10^−8M): 3.41%
Inhibition effects on in vitro growth ([2]; 5 × 10^−5M): 97.26%
Inhibition effects on in vitro growth ([2]; 10^−5M): 24.71%
Inhibition effects on in vitro growth ([2]; 10^−6M): 6.87%
Inhibition effects on in vitro growth ([2]; 10^−7M): 5.63%
Inhibition effects on in vitro growth ([2]; 10^−8M): 4.35%
Inhibition effects on in vitro growth ([3]; 5 × 10^−5M): 97.14%
Inhibition effects on in vitro growth ([3]; 10^−5M): 38.94%
Inhibition effects on in vitro growth ([3]; 10^−6M): 8.71%
Inhibition effects on in vitro growth ([3]; 10^−7M): 2.02%
Inhibition effects on in vitro growth ([3]; 10^−8M): 1.71%
Initial body weight [4]: 22.67 ± 1.37 g
toxicity [4]: obvious toxicity
Inhibition effects on in vitro growth ([5]; 5 × 10^−5M): 67.32%
Inhibition effects on in vitro growth ([5]; 10^−5M): 15.04%
Inhibition effects on in vitro growth ([5]; 10^−6M): 4.45%
Inhibition effects on in vitro growth ([5]; 10^−7M): 3.08%
Inhibition effects on in vitro growth ([5]; 10^−8M): 2.38%
Tumor volume ([6]; 0 d): 275 ± 130 mm^3
RTV ([6]; 2 d): 1.306 ± 0.356
T/C ([6]; 2 d): 81.24%
Tumor volume ([6]; 2 d): 352 ± 169 mm^3
RTV ([6]; 4 d): 2.012 ± 0.744
T/C ([6]; 4 d): 77.07%
Tumor volume ([6]; 4 d): 534 ± 277 mm^3
RTV ([6]; 6 d): 2.048 ± 0.441
T/C ([6]; 6 d): 66.86%
Tumor volume ([6]; 6 d): 531 ± 186 mm^3
RTV ([6]; 8 d): 2.054 ± 0.776
T/C ([6]; 8 d): 46.77%
Tumor volume ([6]; 8 d): 539 ± 255 mm^3
Gross tumor volume ([6]; 10 d): 482 ± 216 mm^3
RTV ([6]; 10 d): 1.846 ± 0.688
T/C ([6]; 10 d): 36.90%
Gross tumor volume ([6]; 12 d): 534 ± 254 mm^3
RTV ([6]; 12 d): 2.189 ± 1.212
T/C ([6]; 12 d): 29.47%
RTV ([6]; 14 d): 2.898 ± 1.741
T/C ([6]; 14 d): 34.16%
Tumor volume ([6]; 14 d): 682 ± 311 mm^3
RTV ([6]; 16 d): 3.115 ± 1.969
T/C ([6]; 16 d): 31.23%
Tumor volume ([6]; 16 d): 730 ± 384 mm^3
RTV ([6]; 18 d): 3.876 ± 2.645
T/C ([6]; 18 d): 34.39%
Tumor volume ([6]; 18 d): 873 ± 407 mm^3
RTV ([6]; 21 d): 3.706 ± 1.796
T/C ([6]; 21 d): 32.18%
Tumor volume ([6]; 21 d): 872 ± 305 mm^3
Tumor weight [6, 12]: 1.27 ± 0.61 g
Tumor-inhibition rate [6, 12]: 61.08%
Inhibition effects on in vitro growth ([7]; 5 × 10^−5M): 94.85%
Inhibition effects on in vitro growth ([7]; 10^−5M): 16.01%
Inhibition effects on in vitro growth ([7]; 10^−6M): 8.45%
Inhibition effects on in vitro growth ([7]; 10^−7M): 3.48%
Inhibition effects on in vitro growth ([7]; 10^−8M): 1.91%
Inhibition effects on in vitro growth ([8]; 5 × 10^−5M): 68.67%
Inhibition effects on in vitro growth ([8]; 10^−5M): 22.99%
Inhibition effects on in vitro growth ([8]; 10^−6M): 5.18%
Inhibition effects on in vitro growth ([8]; 10^−7M): 3.68%
Inhibition effects on in vitro growth ([8]; 10^−8M): 2.3%
Tumor weight (transplanted tumor S180; [10]): 1.05 ± 0.35 g
Tumor-inhibition rate (transplanted tumor S180; [10]): 43.03%
Body weight After administration (transplanted tumor S180; mouse, in vivo, iv, 20 mg/kg): 23.30 ± 1.83 g
Body weight Before administration (transplanted tumor S180; mouse, in vivo, iv, 20 mg/kg): 19.30 ± 1.06 g
Tumor inhibition rate (transplanted tumor Heps; [11]): 59.31%
Tumor weight (transplanted tumor Heps; [11]): 0.80 ± 0.37 g
Body weight After administration (transplanted tumor Heps; mouse, in vivo, iv, 20 mg/kg): 22.40 ± 2.41 g
Body weight Before administration (transplanted tumor Heps; mouse, in vivo, iv, 20 mg/kg): 21.10 ± 1.37 g
Inhibition effects on in vitro growth ([9]; 5 × 10^−5M): 66.2%
Inhibition effects on in vitro growth ([9]; 10^−5M): 59.96%
Inhibition effects on in vitro growth ([9]; 10^−6M): 49.99%
Inhibition effects on in vitro growth ([9]; 10^−7M): 16.67%
Inhibition effects on in vitro growth ([9]; 10^−8M): 9.98%
